Results reported in patent US20230086152A1, “USE OF DESLORATADINE AND SALTS THEREOF IN PREPARING DRUG FOR TREATING NEURODEGENERATIVE DISEASE RELATED TO MOTOR DYSFUNCTION” (NANJING UNIVERSITY OF CHINESE MEDICINE, priority 2021, published 2023).

Columns and labels:
Format in all cases: in vivo
SOD1-G93A model mice [1] = assay: Rotarod experimental test; settings: model DLT group 20 mg/kg/day vs model solvent group; days 101 to 115; FIG. 1
From the text: 1) Rotarod experimental test: SOD1-G93A model mice will have motor dysfunction when they are onset, and therefore, the motor coordination and balance function of the forelimb and hind limbs can be assessed by detecting the duration that the mice stay on the rotarod.
(§1) 1) Animal grouping: Experimental test mice B6SJL-BTg (SOD1-G93A) 1Gur/J (002726) are purchased from Jackson Laboratory in the United States. A total of 48 SOD1-G93A mice are obtained by the gene identification, and their littermates are used as negative control, and they are randomly divided into 4 groups, which are: (1) a wild-type solvent group (2) a wild-type DLT group (20 mg/kg/day), (3) a model solvent group and (4) a model DLT group (20 mg/kg/day). All mice are administered from the age of 56 days (8 weeks old), and 12 mice in each group are sacrificed from the beginning of administration to the age of 120 days. […]
2) Rotarod experimental test: From the age of 60 days, the motor function of SOD1-G93A model mice is detected by the rotarod apparatus. […] Motor coordination and balance are evaluated for each mouse by measuring the mouse's total movement time on the rotarod apparatus. Three trials are performed for each mouse, and the longest dwell time before falling is recorded, and the longest dwell time is set at 180 seconds.

SOD1-G93A model mice [2] = assay: Gait monitoring experimental test; settings: model DLT group 20 mg/kg/day vs model solvent group; after the 15th week; FIG. 2
Description: (§2) 1) Animal grouping: Experimental test mice B6SJL-BTg (SOD1-G93A) 1Gur/J (002726) are purchased from Jackson Laboratory in the United States. A total of 48 SOD1-G93A mice are obtained by the gene identification, and their littermates are used as negative control, and they are randomly divided into 4 groups, which are: (1) a wild-type solvent group (2) a wild-type DLT group (20 mg/kg/day), (3) a model solvent group and (4) a model DLT group (20 mg/kg/day). All mice are administered from the age of 56 days (8 weeks old), and 12 mice in each group are sacrificed from the beginning of administration to the age of 120 days. Histopathological, biochemical and immunological analyses are performed on tissues such as blood, muscles and spinal cords from eyeballs of mice. Compounds are administered to the remaining mice until their deaths, which is used to detect the onset time and survival cycle of mice.
3) Gait monitoring experimental test: In order to obtain footprints, the forefeet and hind feet of SOD1-G93A model mice are painted with red and green non-toxic pigments, respectively. The mice walk along a track with a length of 50 cm and a width of 10 cm, and the gaits of the mice are recorded. […] Footprints of the mice are analyzed, and the average of three result statistics is used in the analysis for recording the gait lengths of the mice.

SOD1-G93A model mice [3] = assay: Cage experimental test (limb grip strength); settings: model DLT group 20 mg/kg/day vs model solvent group; age of 14 to 15 weeks; FIG. 3
From the text: 3) Cage experimental test: The SOD1-G93A model mice show atrophy of the hind limbs and decreased grip strength of the limbs after the onset of the disease. The handing strength at the limbs of the mice is detected by the cage experimental test.
as §2, with “Compounds are administered to the remaining mice until their deaths, which is used to detect the onset time and survival cycle of mice.” left out
4) Cage experimental test: From the 8th week, the test is carried out once a week. […] The maximum time for the mice to grip the cage cover is recorded, the maximum time is set to be 90 seconds, and the specific time is recorded when it is less than 90 seconds. […]

SOD1-G93A model mice [4] = assay: Detection of onset time and survival cycle; settings: model DLT group 20 mg/kg/day from the age of 56 days, p<0.05
From the text: 4) Detection on onset time and survival cycle: The duration from onset to death of SOD1-G93A model mice is shorter, which is similar to the human ALS. Whether it can effectively delay the onset of the disease and prolong the survival cycle is an important indicator.
as §1
5) Detection of onset time and survival cycle: The onset time of transgenic mice is defined as the dates when they first fall from the rotarod apparatus and will not persist for 180 seconds. The dates of deaths of the transgenic mice are defined as the deaths of the mice if the righting reflex cannot be completed within 30 seconds when the mice are lying on their sides, and the days are recorded as the death dates of the mice.

Q: Which “time stayed on the rotarod” value (SOD1-G93A model mice [1]) does the source give for Clc1ccc2c(c1)CCc1cccnc1C2=C1CCNCC1 [desloratadine] here?
A: Its value is “much longer period of time”.

Q: What about the gait length analysis (SOD1-G93A model mice [2]) of the same compound?
A: The gait length analysis was “significantly better”.

Q: And the “persistence in gripping the cage cover” value (SOD1-G93A model mice [3])?
A: Its value is “persist better”.

Q: What about the “onset time (first fall from the rotarod)” value (SOD1-G93A model mice [4]; model solvent group 97.6±1.473 d, FIG. 4) of the same compound?
A: Its value is 103.4 ± 1.705 days.

Q: What about the “survival cycle (failure to complete the righting reflex within 30 seconds)” value (SOD1-G93A model mice [4]; model solvent group 126±1.721 d, FIG. 5) of the same compound?
A: Its value is 131.6 ± 1.51 days.
